In PMC4861610 (Drug Design, Development and Therapy, 2016):
Each block holds one molecule with its values, some of them ahead of it.

What was measured:
FGFR2 = FGFR2 (Homo sapiens, UniProt P21802); test: LANCE Ultra TR-FRET kinase selectivity assay, FGFR2; assay type: biochemical
FGFR1 kinase = FGFR1 kinase (Homo sapiens, UniProt P11362); test: LANCE Ultra TR-FRET kinase assay, FGFR1; assay type: biochemical; settings: for Selectivity ratio: ratio of the second lowest IC50 against the lowest IC50 value among FLT3, FGFR1-3, PDGFR-β, EGFR
PDGFR-β = PDGFR-β (Homo sapiens, UniProt P09619); test: LANCE Ultra TR-FRET kinase selectivity assay, PDGFR-β; assay type: biochemical
[1] = MTT cytotoxicity assay, normal liver HL7702 cells; assay type: cell-based, human; settings: human, HL7702 normal liver cells
FLT3 = biological target: T1, FLT3 (Homo sapiens, UniProt P36888); test: LANCE Ultra TR-FRET kinase selectivity assay, FLT3; assay type: biochemical
T1 sequence (P36888 27-993): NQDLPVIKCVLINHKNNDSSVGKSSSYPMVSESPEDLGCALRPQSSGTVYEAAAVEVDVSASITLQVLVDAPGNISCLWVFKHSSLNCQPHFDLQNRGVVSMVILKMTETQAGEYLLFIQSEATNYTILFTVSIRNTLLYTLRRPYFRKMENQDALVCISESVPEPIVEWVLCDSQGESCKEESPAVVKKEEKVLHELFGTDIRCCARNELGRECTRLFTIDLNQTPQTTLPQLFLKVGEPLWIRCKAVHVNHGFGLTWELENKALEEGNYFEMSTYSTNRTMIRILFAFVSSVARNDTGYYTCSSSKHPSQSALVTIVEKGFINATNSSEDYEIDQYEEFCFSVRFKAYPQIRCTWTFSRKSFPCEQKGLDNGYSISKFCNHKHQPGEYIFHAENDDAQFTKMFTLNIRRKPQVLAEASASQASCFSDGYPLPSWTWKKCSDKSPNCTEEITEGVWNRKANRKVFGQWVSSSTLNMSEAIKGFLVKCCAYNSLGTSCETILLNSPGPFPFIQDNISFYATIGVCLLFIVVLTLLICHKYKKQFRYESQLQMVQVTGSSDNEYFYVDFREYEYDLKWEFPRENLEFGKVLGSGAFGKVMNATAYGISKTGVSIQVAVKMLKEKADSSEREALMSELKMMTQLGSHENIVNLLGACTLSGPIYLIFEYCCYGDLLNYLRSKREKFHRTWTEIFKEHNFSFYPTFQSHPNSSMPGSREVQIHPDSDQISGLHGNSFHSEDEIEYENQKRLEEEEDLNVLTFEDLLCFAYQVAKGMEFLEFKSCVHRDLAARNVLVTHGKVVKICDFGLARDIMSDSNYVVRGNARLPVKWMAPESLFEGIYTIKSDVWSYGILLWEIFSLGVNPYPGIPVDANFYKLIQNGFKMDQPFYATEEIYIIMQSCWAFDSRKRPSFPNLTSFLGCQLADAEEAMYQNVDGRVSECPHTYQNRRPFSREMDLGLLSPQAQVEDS

EGFR = EGFR (Homo sapiens, UniProt P00533); test: LANCE Ultra TR-FRET kinase selectivity assay, EGFR; assay type: biochemical
FGFR3 = FGFR3 (Homo sapiens, UniProt P22607); test: LANCE Ultra TR-FRET kinase selectivity assay, FGFR3; assay type: biochemical
HL7702 cells = test: MTT cytotoxicity assay, normal liver HL7702 cells; assay type: cell-based, human; settings: 2 and 10 µM, Figure 5A and B

Sequence of FGFR2 (P21802 22-821, species assumed): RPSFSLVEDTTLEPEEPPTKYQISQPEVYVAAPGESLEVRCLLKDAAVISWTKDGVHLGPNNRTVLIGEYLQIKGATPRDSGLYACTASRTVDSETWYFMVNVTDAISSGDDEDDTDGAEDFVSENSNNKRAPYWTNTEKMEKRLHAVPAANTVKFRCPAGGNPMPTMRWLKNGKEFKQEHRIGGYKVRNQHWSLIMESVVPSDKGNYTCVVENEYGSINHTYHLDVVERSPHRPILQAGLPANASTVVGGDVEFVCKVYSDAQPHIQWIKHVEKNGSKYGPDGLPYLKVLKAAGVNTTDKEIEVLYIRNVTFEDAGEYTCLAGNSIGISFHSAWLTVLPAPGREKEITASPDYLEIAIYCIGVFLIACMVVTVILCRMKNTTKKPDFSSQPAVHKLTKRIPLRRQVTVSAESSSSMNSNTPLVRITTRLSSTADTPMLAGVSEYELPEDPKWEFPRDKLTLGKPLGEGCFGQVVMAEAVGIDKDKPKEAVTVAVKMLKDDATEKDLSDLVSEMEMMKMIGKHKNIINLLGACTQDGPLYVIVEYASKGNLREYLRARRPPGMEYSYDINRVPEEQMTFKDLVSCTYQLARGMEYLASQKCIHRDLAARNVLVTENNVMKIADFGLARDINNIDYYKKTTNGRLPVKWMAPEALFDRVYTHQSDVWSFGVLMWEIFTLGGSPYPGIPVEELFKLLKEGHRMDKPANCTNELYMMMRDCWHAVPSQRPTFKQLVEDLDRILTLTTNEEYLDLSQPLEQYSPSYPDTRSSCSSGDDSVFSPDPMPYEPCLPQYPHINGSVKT
Sequence of EGFR (P00533 25-1210, species assumed): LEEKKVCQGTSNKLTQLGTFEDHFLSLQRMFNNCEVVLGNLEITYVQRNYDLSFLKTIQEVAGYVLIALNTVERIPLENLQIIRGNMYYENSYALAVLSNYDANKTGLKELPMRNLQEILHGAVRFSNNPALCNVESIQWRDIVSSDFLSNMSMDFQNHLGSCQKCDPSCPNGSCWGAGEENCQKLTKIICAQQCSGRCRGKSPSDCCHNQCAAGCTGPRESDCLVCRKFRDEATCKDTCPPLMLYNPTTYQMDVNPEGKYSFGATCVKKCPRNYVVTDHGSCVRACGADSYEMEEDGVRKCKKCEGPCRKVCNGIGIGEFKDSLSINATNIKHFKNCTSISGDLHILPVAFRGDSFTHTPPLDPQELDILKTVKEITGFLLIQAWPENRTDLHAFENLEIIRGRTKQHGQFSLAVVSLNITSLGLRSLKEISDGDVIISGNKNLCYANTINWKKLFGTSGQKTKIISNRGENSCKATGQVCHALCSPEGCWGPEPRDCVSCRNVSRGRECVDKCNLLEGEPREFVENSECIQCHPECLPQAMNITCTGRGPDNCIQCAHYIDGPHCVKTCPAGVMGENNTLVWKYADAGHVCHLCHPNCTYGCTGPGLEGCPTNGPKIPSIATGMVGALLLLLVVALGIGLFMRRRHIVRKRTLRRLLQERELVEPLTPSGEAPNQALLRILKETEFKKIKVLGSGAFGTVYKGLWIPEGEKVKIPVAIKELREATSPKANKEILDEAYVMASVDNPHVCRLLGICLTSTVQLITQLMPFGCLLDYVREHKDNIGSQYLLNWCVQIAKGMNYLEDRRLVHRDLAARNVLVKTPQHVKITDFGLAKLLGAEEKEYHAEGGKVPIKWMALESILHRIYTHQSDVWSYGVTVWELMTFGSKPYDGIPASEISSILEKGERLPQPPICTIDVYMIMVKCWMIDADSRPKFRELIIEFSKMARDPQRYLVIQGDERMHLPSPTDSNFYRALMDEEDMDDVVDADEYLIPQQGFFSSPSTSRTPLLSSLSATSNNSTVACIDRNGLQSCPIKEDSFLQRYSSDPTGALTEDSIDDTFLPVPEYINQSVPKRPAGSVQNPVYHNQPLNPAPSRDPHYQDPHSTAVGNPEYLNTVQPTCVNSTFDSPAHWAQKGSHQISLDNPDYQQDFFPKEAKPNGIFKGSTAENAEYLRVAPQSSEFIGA
Sequence of PDGFR-β (P09619 33-1106, species assumed): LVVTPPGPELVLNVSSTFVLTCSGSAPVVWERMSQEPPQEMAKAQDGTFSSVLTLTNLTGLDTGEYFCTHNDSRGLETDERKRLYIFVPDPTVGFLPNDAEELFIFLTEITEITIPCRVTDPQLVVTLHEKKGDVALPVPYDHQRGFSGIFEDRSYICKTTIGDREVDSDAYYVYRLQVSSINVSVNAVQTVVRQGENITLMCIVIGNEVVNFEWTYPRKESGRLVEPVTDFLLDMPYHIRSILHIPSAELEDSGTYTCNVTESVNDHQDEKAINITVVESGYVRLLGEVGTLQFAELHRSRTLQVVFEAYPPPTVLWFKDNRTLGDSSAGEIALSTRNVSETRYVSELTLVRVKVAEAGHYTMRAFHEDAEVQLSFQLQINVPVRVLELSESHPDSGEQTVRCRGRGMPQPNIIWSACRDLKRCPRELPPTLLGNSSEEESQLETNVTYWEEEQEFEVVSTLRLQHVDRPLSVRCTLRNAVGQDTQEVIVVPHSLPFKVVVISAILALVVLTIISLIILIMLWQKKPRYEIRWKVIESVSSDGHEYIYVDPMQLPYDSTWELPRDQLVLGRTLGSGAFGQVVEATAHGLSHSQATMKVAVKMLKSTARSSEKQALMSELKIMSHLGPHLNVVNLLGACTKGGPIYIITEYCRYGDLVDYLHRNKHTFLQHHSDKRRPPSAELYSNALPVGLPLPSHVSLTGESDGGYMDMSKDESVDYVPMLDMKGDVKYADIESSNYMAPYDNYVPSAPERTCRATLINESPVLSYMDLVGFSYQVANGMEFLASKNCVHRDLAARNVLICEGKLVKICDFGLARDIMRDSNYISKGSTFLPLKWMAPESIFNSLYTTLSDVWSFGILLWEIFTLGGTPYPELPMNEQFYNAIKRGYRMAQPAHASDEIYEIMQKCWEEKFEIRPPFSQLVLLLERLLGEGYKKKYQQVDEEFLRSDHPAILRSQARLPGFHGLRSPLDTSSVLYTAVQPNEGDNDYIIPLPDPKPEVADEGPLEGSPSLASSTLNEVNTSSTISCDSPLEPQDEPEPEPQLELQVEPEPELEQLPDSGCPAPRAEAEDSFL
Sequence of FGFR1 kinase (P11362 478-767 limits assumed): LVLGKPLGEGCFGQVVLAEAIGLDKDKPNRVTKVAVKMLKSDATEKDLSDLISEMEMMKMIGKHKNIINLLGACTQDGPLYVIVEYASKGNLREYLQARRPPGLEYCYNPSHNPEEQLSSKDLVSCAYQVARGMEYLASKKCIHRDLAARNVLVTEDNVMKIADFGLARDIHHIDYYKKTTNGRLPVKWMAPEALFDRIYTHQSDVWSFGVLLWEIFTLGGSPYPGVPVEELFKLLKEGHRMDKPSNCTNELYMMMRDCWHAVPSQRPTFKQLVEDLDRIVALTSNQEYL
Sequence of FGFR3 (P22607 23-806, species assumed): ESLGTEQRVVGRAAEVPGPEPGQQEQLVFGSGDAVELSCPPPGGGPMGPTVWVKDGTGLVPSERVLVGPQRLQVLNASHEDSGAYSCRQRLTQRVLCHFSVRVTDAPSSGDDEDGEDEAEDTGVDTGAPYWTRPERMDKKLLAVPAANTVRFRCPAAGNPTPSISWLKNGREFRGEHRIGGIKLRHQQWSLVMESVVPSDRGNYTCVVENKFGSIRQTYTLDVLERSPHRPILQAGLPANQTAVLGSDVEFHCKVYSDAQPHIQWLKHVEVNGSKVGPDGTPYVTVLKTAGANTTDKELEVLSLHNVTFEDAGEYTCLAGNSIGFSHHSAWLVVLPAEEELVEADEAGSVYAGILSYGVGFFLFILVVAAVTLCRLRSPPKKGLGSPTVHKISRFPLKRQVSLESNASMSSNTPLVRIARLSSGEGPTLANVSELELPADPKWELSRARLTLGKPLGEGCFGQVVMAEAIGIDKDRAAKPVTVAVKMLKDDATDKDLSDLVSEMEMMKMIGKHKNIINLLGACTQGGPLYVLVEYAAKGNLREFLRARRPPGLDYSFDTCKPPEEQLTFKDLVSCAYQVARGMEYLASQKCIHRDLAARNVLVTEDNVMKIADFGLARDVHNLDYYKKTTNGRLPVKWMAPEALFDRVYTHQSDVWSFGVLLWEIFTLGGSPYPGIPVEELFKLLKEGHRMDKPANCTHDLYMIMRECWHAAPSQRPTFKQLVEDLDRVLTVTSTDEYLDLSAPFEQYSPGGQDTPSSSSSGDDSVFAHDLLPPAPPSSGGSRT

- IC50 (FGFR2): > 100 µM
- IC50 (FGFR1 kinase): 23.2 ± 1.12 µM
- Selectivity ratio (FGFR1 kinase): 3.86
- IC50 (PDGFR-β): > 100 µM
- IC50 (FLT3): > 100 µM
- IC50 (EGFR): > 100 µM
- IC50 (FGFR3): 89.6 ± 3.32 µM
SMILES: O=c1[nH]c2ccccc2nc1/C=C/c1ccccc1 [A1, (E)-1,2-Dihydro-3-(2-phenylethenyl) quinoxalin-2-one]
- IC50 at 72 h [1]: > 100 µM

- IC50 (FGFR2): > 100 µM
- IC50 (FGFR1 kinase): 21.5 ± 2.24 µM
- Selectivity ratio (FGFR1 kinase): 2.57
- IC50 (PDGFR-β): 55.4 ± 1.72 µM
- IC50 (FLT3): > 100 µM
- IC50 (EGFR): > 100 µM
- IC50 (FGFR3): 75.1 ± 2.56 µM
SMILES: O=c1[nH]c2ccccc2nc1/C=C/c1ccccc1Cl [A2, (E)-1,2-Dihydro-3-[2-(2-chlorophenyl)ethenyl]-quinoxalin-2-one]
- IC50 at 72 h [1]: 41.5 ± 7.56 µM

SMILES: Oc1nc2ccccc2nc1/C=C/c1ccc(F)cc1 [A4, (E)-3-[2-(4-Fluorophenyl)ethenyl]-1,2-dihydro-quinoxalin-2-one]
- IC50 at 72 h [1]: 67.9 ± 1.94 µM

SMILES: O=c1[nH]c2ccccc2nc1/C=C/c1ccccn1 [A5, (E)-3-[2-(Pyridine-2-yl)ethenyl]-1,2-dihydro-quinoxalin-2-one]
- IC50 (FGFR2): > 100 µM
- inhibition ratio of FGFR1 (FGFR1 kinase; at 10.0 µM): 79.33%
- IC50 (PDGFR-β): > 100 µM
- survival rate of HL7702 cells compared with TKI258 (HL7702 cells): higher survival rate
- IC50 at 72 h [1]: > 100 µM
- IC50 (FLT3): > 100 µM
- IC50 (EGFR): > 100 µM
- IC50 (FGFR3): > 100 µM

SMILES: O=c1[nH]c2ccccc2nc1/C=C/c1ccccc1F [A6, (E)-3-[2-(2-Fluorophenyl)ethenyl]-1,2-dihydro-quinoxalin-2-one]
- IC50 at 72 h [1]: > 100 µM

SMILES: O=c1[nH]c2ccccc2nc1/C=C/c1cccs1 [A7, (E)-3-[2-(Thiophene-2-yl)ethenyl]-1,2-dihydro-quinoxalin-2-one]
- IC50 at 72 h [1]: 83.2 ± 8.12 µM

SMILES: O=c1[nH]c2ccccc2nc1/C=C/c1ccco1 [A8, (E)-3-[2-(Furan-2-yl)ethenyl]-1,2-dihydro-quinoxalin-2-one]
- IC50 at 72 h [1]: > 100 µM

SMILES: COc1cccc(/C=C/c2nc3ccccc3[nH]c2=O)c1OC [A9, (E)-1,2-Dihydro-3-[2-(2,3-dimethoxyphenyl)ethenyl]-quinoxalin-2-one]
- IC50 at 72 h [1]: > 100 µM

SMILES: O=c1[nH]c2ccccc2nc1/C=C/c1ccccc1[N+](=O)[O-] [A10, (E)-1,2-Dihydro-3-[2-(2-nitrophenyl)ethenyl]-quinoxalin-2-one]
- IC50 at 72 h [1]: 68.2 ± 5.96 µM

SMILES: O=c1[nH]c2ccccc2nc1/C=C/c1ccc(C(F)(F)F)cc1 [A11, (E)-1,2-Dihydro-3-[2-(4-trifluoromethylphenyl)ethenyl]-quinoxalin-2-one]
- IC50 at 72 h [1]: > 100 µM

SMILES: O=c1[nH]c2ccccc2nc1/C=C/c1ccc2ccccc2c1 [A13, (E)-1,2-Dihydro-3-[2-(naphth-2-yl)ethenyl]-quinoxalin-2-one]
- IC50 at 72 h [1]: > 100 µM

SMILES: Cn1c(=O)c(/C=C/c2ccccc2)nc2ccccc21 [B1, (E)-1,2-Dihydro-1-methyl-3-(2-phenylethenyl)-quinoxalin-2-one]
- IC50 at 72 h [1]: > 100 µM

- IC50 (FGFR2): > 100 µM
- IC50 (FGFR1 kinase): 26.1 ± 1.32 µM
- IC50 (PDGFR-β): > 100 µM
- IC50 (FLT3): > 100 µM
- IC50 (EGFR): > 100 µM
- IC50 (FGFR3): > 100 µM
SMILES: Cn1c(=O)c(/C=C/c2ccccc2Cl)nc2ccccc21 [B2, (E)-3-[2-(2-Chlorophenyl)ethenyl]-1,2-dihydro-1-methyl-quinoxalin-2-one]
- IC50 at 72 h [1]: > 100 µM

SMILES: Cn1c(=O)c(/C=C/c2ccccc2Br)nc2ccccc21 [B3, (E)-3-[2-(2-Bromophenyl)ethenyl]-1,2-dihydro-1-methyl-quinoxalin-2-one]
- IC50 at 72 h [1]: 49 ± 1.31 µM

SMILES: Cn1c(=O)c(/C=C/c2ccc(F)cc2)nc2ccccc21 [B4, (E)-1,2-Dihydro-3-[2-(4-fluorophenyl)ethenyl]-1-methyl-quinoxalin-2-one]
- IC50 at 72 h [1]: > 100 µM

- IC50 (FGFR2): > 100 µM
- IC50 (PDGFR-β): 89.5 ± 3.56 µM
- IC50 (FLT3): > 100 µM
- IC50 (EGFR): > 100 µM
- IC50 (FGFR3): > 100 µM
SMILES: Cn1c(=O)c(/C=C/c2ccccn2)nc2ccccc21 [B5, (E)-3-[2-(Pyridine-2-yl)ethenyl]-1,2-dihydro-1-methyl-quinoxalin-2-one]

SMILES: O=c1c(/C=C/c2ccccc2)nc2ccccc2n1Cc1ccccc1 [C1, (E)-1,2-Dihydro-3-(2-phenylethenyl)-1-phenylmethyl-quinoxalin-2-one]
- IC50 at 72 h [1]: > 100 µM

- IC50 (FGFR2): > 100 µM
- Selectivity ratio (FGFR1 kinase): 3.68
- IC50 (PDGFR-β): > 100 µM
- IC50 (FLT3): > 100 µM
- IC50 (EGFR): > 100 µM
SMILES: O=c1c(/C=C/c2ccccc2Cl)nc2ccccc2n1Cc1ccccc1 [C2, (E)-3-[2-(2-Chlorophenyl)ethenyl]-1,2-dihydro-1-phenylmethyl-quinoxalin-2-one]
- IC50 at 72 h [1]: > 100 µM

SMILES: O=c1c(/C=C/c2ccccc2Br)nc2ccccc2n1Cc1ccccc1 [C3, (E)-3-[2-(2-Bromophenyl)ethenyl]-1,2-dihydro-1-phenylmethyl-quinoxalin-2-one]
- IC50 at 72 h [1]: > 100 µM

SMILES: O=c1c(/C=C/c2ccccc2F)nc2ccccc2n1Cc1ccccc1 [C4, (E)-3-[2-(2-Fluorophenyl)ethenyl]-1,2-dihydro-1-phenylmethyl-quinoxalin-2-one]
- IC50 at 72 h [1]: > 100 µM

SMILES: O=c1c(/C=C/c2ccccn2)nc2ccccc2n1Cc1ccccc1 [C5, (E)-3-[2-(Pyridine-2-yl)ethenyl]-1,2-dihydro-1-phenylmethyl-quinoxalin-2-one]
- IC50 at 72 h [1]: 35.8 ± 2.17 µM

SMILES: Fc1ccccc1/C=C/c1nc2ccccc2nc1Cl [D1, (E)-2-Chloro-3-[2-(2-fluorophenyl)ethenyl]-quinoxalin]
- IC50 at 72 h [1]: 40.2 ± 1.85 µM

SMILES: CN1CCN(c2nc3ccccc3nc2/C=C/c2ccccc2F)CC1 [D3, (E)-2-(4-Methylpiperazin-1-yl)-3-[2-(2-fluorophenyl)ethenyl]-quinoxalin]
- IC50 at 72 h [1]: > 100 µM

SMILES: CN1CCN(c2ccc3nc(-c4c(N)c5c(F)cccc5[nH]c4=O)[nH]c3c2)CC1 [TKI258, reference compound]
- IC50 at 72 h [1]: 32.8 ± 2.38 µM
